From patent publication US5798335A, “Method for the treatment or prevention of eczema/dermatitis” (priority 1993, dated 1998) come the findings set out here.

For one assay, the system named is inflammatory lesions. As to conditions: three lesions severity 1 on back; dermal spray morning and afternoon; after three days. As for the experimental part:
The usefulness of the method of the present invention was assessed in experiments using dogs.

In a further assay the test system is skin conditions. As for the experimental part:
Following these initial trials a further trial was conducted […].
The trial was a double-blinded, placebo controlled trial in which the compound was compared with placebo treatment. […] The study was conducted as follows:
1. Assessment by a veterinarian.
2. Treatment Period A: 14 days.
3. Assessment by a veterinarian.
4. No treatment for seven days as a wash-out period.
5. Assessment by a veterinarian.
6. Treatment Period B: 14 days.
7. Assessment by a veterinarian.
8. No treatment for seven days.
9. Assessment by a veterinarian.

“D-Ala-Ser-Thr-Thr-Thr-Asn-Tyr-Thr-NH2 [Peptide T]”: in the assay with inflammatory lesions, the “Treatment results (lesions)” value is “Lesions had disappeared”. The “cases of mild improvement in one parameter (usually erythema)” value in the assay with skin conditions (14 day treatment period, crossover with placebo) is listed as “five”. The “dogs with significant improvement” value in the assay with skin conditions (14 day treatment period, these dogs had atopic dermatitis) is “two”. Further, in the assay on skin conditions (14 day treatment periods, crossover with placebo), the “dogs with no change” value is “ten”.
